{
  "source": "patent US20260125428A1",
  "about": "“SYNTHETIC TRIPLEX PEPTIDE NUCLEIC ACID-BASED INHIBITORS FOR CANCER THERAPY” (University of Connecticut, priority 2022, published 2026)",
  "system": "c-myc protein",
  "experiment": "Efficacy study in Ep-myc mice: c-myc protein in lymph nodes by western blot",
  "assay_type": "in vivo",
  "conditions": "SC 60 mg/kg over 2 days, euthanized day 3, western blot",
  "method": "FIGS. 8A-D show organ distribution after intravenous and subcutaneous administration of indicated PNAs. (8A) The organ distribution of γPNA-NLS TAMRA after intravenous (IV) and subcutaneous (SC) administration in transgenic mice model of B-cell lymphoma (Ep-myc). γPNA-NLS TAMRA was administered at 5 mg/kg via IV and SC route and organ distribution was determined via IVIS imaging after 24 h. (8B) Confocal microscopy images of different lymph nodes (LNs) after IV and SC injection of γPNA-NLS TAMRA. Blue indicates DAPI and red indicated TAMRA. Scale bar, 30 μm. (8C) C-myc protein levels in brachial lymph nodes of γPNA5-NLS treated mice in comparison to the control (untreated mice). N=4 mice per group. (8D) C-myc protein levels in axillary lymph nodes of γPNA5-NLS treated mice in comparison to the control (untreated mice). N=4 mice per group. […]\nWestern blot analysis: Total protein was extracted from collected lymphocytes using 1×RIPA buffer (Cell signaling technology, USA) containing protease inhibitor. The concentration of protein was determined using absorbance-based DC protein assay (Bio-Rad, USA). […] The bands were detected using anti-rabbit IgG HRP linked secondary antibody (Cell signaling technology, #7074) (1:2000 dilution, 5% milk in TBST) and HRP substrate (Millipore sigma). The blots were imaged using ChemiDoc imager (Bio-Rad, USA) and band intensities were quantified using imageJ.",
  "data": [
    {"substance": "X3TCCCTCCCCTCCCTTCTTTTTCCX2 (gamma PNA; NLS peptide; gammaPNA; misc_feature 1 JJJTJJJT-linker- is covalently linked to the backbone, wherein J is pseudoisocytosine and the linker is 11-Amino-3,6,9-Trioxaundecanoic Acid (DCHA), represented as -OOO-; misc_feature 23 -K-linker-SEQ ID NO: 5 is covalently linked to the backbone, wherein the linker is 11-Amino-3,6,9-Trioxaundecanoic Acid (DCHA), represented as -OOO-; modified_base 1..23 OTHER; peptide nuc) [γPNA5-NLS]", "values": [
      {"measurement": "c-myc protein levels in brachial and axillary lymph nodes in comparison to untreated group", "result": "substantial decrease in c-myc protein levels"}
    ]}
  ]
}
